Laboratory results taken from patent publication US4034082A, “Method to prevent reproduction in warm-blooded female animals with nonapeptides” (Abbott Laboratories, priority 1976, dated 1977).

Key:
[1] = tested on: Adult, female rats, mated; experiment: Prevention of implantation/pregnancy in mated rats (Example 2); type: in vivo, rat; conditions: 10 μg s.c. b.i.d., day 3 to day 6 of gestation; for fate of the implantation sites: sacrificed day 13; for total implantation sites found in the uteri of the group: sacrificed day 13, groups of 8 or 9 (control: 87 implantation and 3 resorbed sites); for animals having implantation sites: sacrificed day 13, group of 9 (control: 8 of 9 pregnant)
Method: Adult, female rats weighing an average of 200 g. were mated and then randomly divided into groups of 8 and 9 rats. In all animals, mating was determined by the presence of sperms in the vaginal opening. In all animals, subcutaneous treatment was started on day 3 of gestation and continued until day 6 with 10 μg of the above compound, b.i.d. in an aqueous vehicle containing 0.1% bovine serum albumin and 0.9% sodium chloride at a concentration of 0.02% (wt./vol.). All animals were sacrificed on day 13 and checked for toxic manifestations, fetuses or viable implants.
In the first of four groups (control), the animals received the above vehicle only. […] Upon sacrifice, a total of 87 implantation and 3 resorbed sites was found in the uteri.

Pregnant rabbits = experiment: Fetal viability in pregnant rabbits after a single injection (Example 4); type: in vivo, rabbit; conditions: single s.c. injection of 12.5 μg/kg on day 14 of gestation, sacrificed day 28 (control: 7 of 8 implants viable)
Method: Pregnant rabbits were given single subcutaneous injections of 12.5 μg/kg of the compounds used in Example 2 by the route and vehicle shown there on day 14 of gestation. […] In all instances, the animals were sacrificed on day 28 of gestation.

rats = experiment: Reversal of the anti-implantation effect by exogenous estradiol in treated rats; type: in vivo, rat; conditions: rats treated days 2-6 of gestation, estradiol 0.1 μg s.c. in sesame oil on days 4 and 5; for animals in which implantation takes place when estradiol is co-administered: of 8 animals

Row | Compound | fate of the implantation sites [1] | total implantation sites found in the uteri of the group [1] | viable fetuses per implants (average) (Pregnant rabbits) | viability of embryos when estradiol is co-administered (rats) | animals in which implantation takes place when estradiol is co-administered (rats) | animals having implantation sites [1] | animals showing no signs of implantation ([1]; sacrificed day 13, group of 9)
1 | CCNC(=O)[C@@H]1CCCN1C(=O)[C@H](CCCNC(=N)N)NC(=O)[C@H](CC(C)C)NC(=O)[C@@H](Cc1ccccc1)NC(=O)[C@H](Cc1ccc(O)cc1)NC(=O)[C@H](CO)NC(=O)[C@H](Cc1c[nH]c2ccccc12)NC(=O)[C@H](Cc1c[nH]cn1)NC(=O)[C@@H]1CCC(=O)N1 [Compound C] | resorbed | single | one viable fetus per 7 implants | substantially only viable embryos | 3 |  | 
2 | CCNC(=O)[C@@H]1CCCN1C(=O)[C@H](CCCNC(=N)N)NC(=O)[C@H](CC(C)C)NC(=O)[C@@H](Cc1ccc(O)cc1)NC(=O)[C@H](Cc1ccc(O)cc1)NC(=O)[C@H](CO)NC(=O)[C@H](Cc1c[nH]c2ccccc12)NC(=O)[C@H](Cc1c[nH]cn1)NC(=O)[C@@H]1CCC(=O)N1 [Compound B] | all 22 counted sites had been resorbed | 22 | one viable fetus per 7 implants | substantially only viable embryos | 3 | 2 | 
3 | CCNC(=O)[C@@H]1CCCN1C(=O)[C@H](CCCNC(=N)N)NC(=O)[C@H](CC(C)C)NC(=O)[C@@H](Cc1c[nH]c2ccccc12)NC(=O)[C@H](Cc1ccc(O)cc1)NC(=O)[C@H](CO)NC(=O)[C@H](Cc1c[nH]c2ccccc12)NC(=O)[C@H](Cc1c[nH]cn1)NC(=O)[C@@H]1CCC(=O)N1 [Compound A] | all resorbed | 25 | one viable fetus per 7 implants | substantially only viable embryos | 3 | two | Seven
